Among the data in BindingDB's records for doi:10.1016/j.bmcl.2018.05.060 (Universidad De Granada, 2018) are IC50 values, retold here.

The assay concerns the target Choline kinase alpha (Homo sapiens, UniProt P35790). In words: Inhibition of human choline kinase alpha1 using [methyl-14C]choline as substrate assessed as reduction in rate of incorporation of 14C from [methyl-14C]choline into phosphocholine preincubated for 5 mins followed by substrate addition measured after 10 mins by scintillation counting.

The structures appear in SMILES notation.

Chain of Choline kinase alpha (P35790 whole entry): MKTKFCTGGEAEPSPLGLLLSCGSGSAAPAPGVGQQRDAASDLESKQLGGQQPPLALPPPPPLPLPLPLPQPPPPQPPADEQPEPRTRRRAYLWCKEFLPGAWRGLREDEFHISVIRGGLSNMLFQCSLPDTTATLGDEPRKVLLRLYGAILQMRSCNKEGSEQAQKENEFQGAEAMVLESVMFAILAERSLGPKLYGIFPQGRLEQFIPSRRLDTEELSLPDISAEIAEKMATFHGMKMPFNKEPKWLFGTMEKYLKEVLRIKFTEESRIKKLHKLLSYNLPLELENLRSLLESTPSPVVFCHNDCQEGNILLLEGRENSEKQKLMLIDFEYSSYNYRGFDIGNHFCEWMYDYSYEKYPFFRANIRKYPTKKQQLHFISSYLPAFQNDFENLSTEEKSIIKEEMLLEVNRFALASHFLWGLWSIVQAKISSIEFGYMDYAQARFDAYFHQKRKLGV

For `CN(c1ccccc1)c1cc[n+](Cc2ccc(OCCOc3ccc(C[n+]4ccc(N(C)c5ccccc5)c5ccccc54)cc3)cc2)c2ccccc12`, the IC50 was found to be 6.85 µM.
